Here are results for six compounds from patent US20050267204A1, “Synergistic gold-containing compositions” (MEDICAL INNOVATIONS LIMITED, priority 1996, published 2005).

Each structure is given as a SMILES string. Entries after “also recorded” stand apart in the source; their conditions may differ. Like-named read-outs stand apart in the source and are kept apart here.

Test [1] deals with TPA-induced epidermal hyperplasia. Description: Inhibition of TPA-induced epidermal hyperplasia (epidermal thickness) on back skin of mice. The following applies: for Emax: read-out: Emax (% inhibition); for Relative potency: hydrocortisone acetate = 1.0. It is filed as in vivo, BALB/c mice. As for the experimental part: (§1) The mice were housed in stainless steel cages, 6 mice per cage under normal laboratory conditions (room temperature at about 22° C.) at least 7 days before the experiments for acclimatization. Food and water were allowed ad libitum throughout the experiment period. The backs of the mice were shaved with an electric clipper two days before each treatment and only those mice showing no hair regrowth were used (i.e., the mice in the resting phase of the hair growth cycle were selected). During treatment, the mice were held with their tails and put on top of the cage so that they grasped the cage and rested there. The solutions were applied to an area approximately 2 cm×2 cm on the shaved back of the mice by using a “Pipetman” to apply the solution. If auranofin ointment or ointment base was applied, the amount was standardized by using a microspatula which was crimped at one end, the ointment was then put into the ridge and the excess removed by means of another microspatula and applied sparingly twice a day. After a fixed time, the mice were killed routinely by cervical dislocation between 9 a.m. and 11 a.m. to avoid variations due to circadian rhythms, and an area (1 cm×1 cm) was excised from the centre of the treated area by scalpel and scissors. The rest of the tissues were disposed by combustion. The tissues were then fixed, embedded, sectioned and stained.
Epidermal thickness was determined by image analysis. This image analysis system was a minicomputer (Tracor Northern TN8500) attached to a light microscope (Zeiss Axioplan) and a camcorder (Sony DXC-3000P). Sections were taken from each tissue block and 20 measurements were taken at fixed intervals from each section. The average value for the 20 measurements was obtained and entered as one value for each mouse. The mean and SEM for the six mice in each treatment group were calculated.
(§2) The percent inhibition of drug on TPA-induced skin responses (i.e., epidermal hyperplasia, inflammatory cell infiltration and skin-fold thickness) was calculated by using the following formula: [formula]
(§3) This provides estimates of (a) the potency, (b) the efficacy or maximum effect (Emax) and the slope of the log concentration-response curve by using Hill coefficient (γ). The Hill Equation may be expressed as follows: [formula] where IC50 is the drug concentration producing 50% of the maximal response and Emax refers to the maximal effect produced by the drug and is also termed efficacy. Efficacy is the measurement of the intrinsic ability of a drug to initiate a response once it occupies receptor sites. […] The Hill coefficient (γ) measures the slope of the dose-effect curve which can be markedly influenced by the shape of the curve that describes the binding of the drug to the receptor. For many drugs, y lies between 0.6 and 1.5. […] On the other hand, when γ is less than 1, with a shallow hyperbolic concentration effect relationship, the activity occurs over a wide range of drug levels.
(§4) In the present study, concentration-response curves were obtained for a series of corticosteroids. In these experiments, curve fitting was accomplished using a computer programme called “The Scientist” (MicroMath Scientific Software, Salt Lake City, Utah, USA.) in which the parameters, Emax, IC50 and Hill coefficient (γ) for each steroids were estimated by using non-linear regression and least square fits.
Mice were divided into treatment groups. TPA and corticosteroids were premixed to the concentrations required and applied to the backs of mice immediately. For those steroids not very soluble in acetone (i.e., betamethasone, dexamethasone, hydrocortisone and hydrocortisone acetate), the drugs were dissolved in 100 μL dimethylformamide before further dilution with acetone. The efficacy of corticosteroids in inhibiting epidermal hyperplasia, inflammatory cell infiltration and skin-fold thickness was assessed as described previously. Concentration-response curves were determined after computer-fitting of data.

Test [2] concerns TPA-induced inflammatory cell infiltration into the dermis. Nature of the test: Inhibition of TPA-induced inflammatory cell infiltration into the dermis of mice. Format: in vivo, BALB/c mice. The conditions noted are these: for IC50 / Emax: Mus musculus; for Emax: read-out: Emax (% inhibition); for Relative potency: hydrocortisone acetate = 1.0. On the procedure: as §1
Infiltration of inflammatory cells was determined by the same image analysis system using the section taken from the block of mouse skin embedded in paraffin wax or Spurr's resin and stained with haematoxylin and eosin or toluidine blue respectively. For each section, 10 fields, unless otherwise stated, were chosen randomly and the cell density per mm^2 of field determined. The average value for the 10 fields was obtained and entered as one value for each mouse. The mean and SEM for the six mice in each treatment group were calculated.
The measurement of the inflammatory cell infiltration included the background values which included other materials in the dermis stained in the same way.
as §2, §3, §4
Mice were divided into treatment groups. TPA and corticosteroids were premixed to the concentrations required and applied to the backs of mice immediately.

Setting [3] is: IC50 without auranofin divided by IC50 with auranofin (0.2%).
Setting [4] is: Mus musculus, from Hill equation, concentration that produced 50% of Emax, read-out: IC50 for inhibition of epidermal thickening (M × 10^−4).
Where [5] appears, read: Mus musculus, read from concentration-response curve, concentration that inhibited 50% of the TPA effect, read-out: IC50 for inhibition of epidermal thickening (M × 10^−4).
Setting [6] is: Mus musculus, topical, Hill equation fit, means ± SD, steroid premixed with TPA, topical, read-out: IC50 (M × 10^−4).
The mark [7] stands for this setting: Mus musculus, Hill equation fit, means ± SD, steroid premixed with TPA, topical.
Where [8] appears, read: from Hill equation, concentration that produced 50% of Emax, read-out: IC50 for inhibition of inflammatory cell infiltration in the dermis (M × 10^−4).
Where [9] appears, read: read from concentration-response curve, concentration that inhibited 50% of the TPA effect, read-out: IC50 for inhibition of inflammatory cell infiltration in the dermis (M × 10^−4).
[10] abbreviates: topical, Hill equation fit, means ± SD, steroid premixed with TPA, topical, read-out: IC50 (M × 10^−4).
Setting [11] is: Hill equation fit, means ± SD, steroid premixed with TPA, topical.

In the case of `CCC(=O)OCC(=O)[C@@]1(OC(=O)CC)[C@H](C)C[C@H]2[C@H]3[C@H]([C@@H](O)C[C@@]21C)[C@@]1(C)C=CC(=O)C=C1C[C@H]3Cl` [Alclometasone dipropionate], the IC50 in test [1] (Mus musculus, read-out: IC50 for inhibition of epidermal thickening (M × 10^−4), from Hill equation, concentration that produced 50% of Emax) was found to be 89 µM; in test [1] (Mus musculus, read-out: IC50 for inhibition of epidermal thickening (M × 10^−4), read from concentration-response curve, concentration that inhibited 50% of the TPA effect), 100 µM; in test [1] (Mus musculus, topical, read-out: IC50 (M × 10^−4), Hill equation fit, means ± SD, steroid premixed with TPA, topical) it was 89 ± 30 µM; in test [2] (read-out: IC50 for inhibition of inflammatory cell infiltration in the dermis (M × 10^−4), from Hill equation, concentration that produced 50% of Emax), 32 µM; in test [2] (read-out: IC50 for inhibition of inflammatory cell infiltration in the dermis (M × 10^−4), read from concentration-response curve, concentration that inhibited 50% of the TPA effect) it was 60 µM; in test [2] (topical, read-out: IC50 (M × 10^−4), Hill equation fit, means ± SD, steroid premixed with TPA, topical), 32 ± 9 µM. The Emax (commonly the maximal effect, on the per cent scale that the assay sets) stood at 96.6 ± 7.9% in test [1] (Mus musculus, topical) and 82.1 ± 5.65% in test [2] (topical). In addition, the Relative potency was determined as 41.20 in test [1] (from Hill-equation IC50), 70.0 in test [1] (from IC50 read from curve), 241.66 in test [2] (from Hill-equation IC50) and 183.33 in test [2] (from IC50 read from curve). Also, the “Potency for inhibition of TPA-induced epidermal hyperplasia (in words)” value in test [1] (ranking in text) is “medium to strong potencies”. Besides, the “Potency for inhibition of TPA-induced inflammatory cell infiltration (in words)” value in test [2] (ranking in text) is given as “medium to strong potencies”.

Regarding `CC[PH](CC)(CC)[Au][S][C@@H]1O[C@H](COC(C)=O)[C@@H](OC(C)=O)[C@H](OC(C)=O)[C@H]1OC(C)=O` [Auranofin, (1-thio-p-D-glucopyranose 2,3,4,6-tetraacetato-S)-(triethylphosphine)-Au(I)], the “Inhibition of TPA-induced epidermal hyperplasia” value in test [1] (auranofin (0.2%) alone, FIG. 1) was “about 10%”.

As to `CCC(=O)OCC(=O)[C@@]1(OC(=O)CC)[C@@H](C)C[C@H]2[C@@H]3CCC4=CC(=O)C=C[C@]4(C)[C@@]3(F)[C@@H](O)C[C@@]21C` [Betamethasone dipropionate, betamethasone dipropionate], in test [1], the “Potency for inhibition of TPA-induced epidermal hyperplasia (in words)” value is on record as “medium to strong potencies; also recorded: strong to very strong potencies”. Moreover, in test [1] (1×10^−5 M combined with auranofin (0.2%), FIG. 1), the “Inhibition of TPA effect (epidermal hyperplasia)” value is on record as “about 65%”. The Synergistic factor in test [1] (setting [3]) amounted to 56.0; in test [2] (setting [3]) it was 4.44. Also, the IC50 is 81 µM in test [1] (setting [4]); 140 µM in test [1] (setting [5]); 81 ± 36 µM in test [1] (setting [6]); 2.5 ± 0.3 µM in test [1] (Mus musculus, with auranofin (0.2%), from computer fitted graph, means ± SD, read-out: Apparent IC50 (M × 10^−4) with auranofin); 140 ± 36 µM in test [1] (Mus musculus, without auranofin, from computer fitted graph, means ± SD, read-out: Apparent IC50 (M × 10^−4) without auranofin); 29 µM in test [2] (setting [8]). Further, the IC50 in test [2] (setting [9]) amounted to 40 µM; in test [2] (setting [10]), 29 ± 6 µM; in test [2] (with auranofin (0.2%), from computer fitted graph, means ± SD, read-out: Apparent IC50 (M × 10^−4) with auranofin), 9 ± 1.6 µM; in test [2] (without auranofin, from computer fitted graph, means ± SD, read-out: Apparent IC50 (M × 10^−4) without auranofin) it was 40 ± 6 µM. In addition, the inhibition (as a rule, the relative decrease from the control value, in per cent) at 10 µM in test [1] (Mus musculus, 1×10^−5 M alone, FIG. 1, read-out: Inhibition of TPA effect (epidermal hyperplasia)) is roughly 20%. Moreover, the Emax in test [1] (setting [7]) was found to be 95.6 ± 6.55%; in test [2] (setting [11]) it was 90.8 ± 3.71%. In addition, the “Ratio of concentration without auranofin to concentration with auranofin for the same effect” value in test [1] (about 65% inhibition level) stood at 50 times. Further, in test [1] (auranofin (0.2%) co-administered), the “Synergism with auranofin, epidermal hyperplasia (in words)” value is given as “massive synergism”. In addition, the Relative potency in test [1] (from Hill-equation IC50) turned out to be 45.27; in test [1] (from IC50 read from curve) it was 50.0; in test [2] (from Hill-equation IC50), 266.66; in test [2] (from IC50 read from curve), 275.0. In addition, the “Percent increase in the apparent potency of the steroid” value in test [1] (in presence of auranofin (0.2%)) is 5,600%. Besides, the “Concentration that, in the absence of auranofin, produced the same effect as the combination” value in test [1] (same effect as 1×10^−5 M with auranofin (0.2%)) stood at 500 µM. Moreover, in test [2], the “Potency for inhibition of TPA-induced inflammatory cell infiltration (in words)” value is given as “medium to strong potencies; also recorded: strong to very strong anti-inflammatory effect”. In addition, the “Increase in apparent IC50” value in test [2] (in presence of auranofin (0.2%), Table 10) is reported as 400-500%.

With `CCCCC(=O)O[C@]1(C(=O)CO)[C@@H](C)C[C@H]2[C@@H]3CCC4=CC(=O)C=C[C@]4(C)[C@@]3(F)[C@@H](O)C[C@@]21C` [Betamethasone valerate, betamethasone valerate], the “Potency for inhibition of TPA-induced epidermal hyperplasia (in words)” value in test [1] is reported as “strong to very strong potencies; also recorded: most potent agent”. The IC50 in test [1] (setting [4]) is 15 µM; in test [1] (setting [5]), 22 µM; in test [1] (setting [6]), 15 ± 2 µM; in test [2] (setting [8]), 29 µM; in test [2] (setting [9]), 65 µM; in test [2] (setting [10]) it was 29 ± 3 µM. In addition, the figures for the Emax in test [1] (setting [7]) and in test [2] (setting [11]) were 82.2 ± 2.84% and 73.5 ± 1.76%, respectively. Further, the Relative potency in test [1] (from Hill-equation IC50) was found to be 244.47; in test [1] (from IC50 read from curve) it was 318.18; in test [2] (from Hill-equation IC50) it was 266.66; in test [2] (from IC50 read from curve), 169.23. Further, in test [2] (ranking in text), the “Potency for inhibition of TPA-induced inflammatory cell infiltration (in words)” value is given as “strong to very strong anti-inflammatory effect”.

For `C[C@H]1C[C@H]2[C@@H]3CCC4=CC(=O)C=C[C@]4(C)[C@@]3(F)[C@@H](O)C[C@]2(C)[C@@]1(O)C(=O)CO` [Betamethasone, betamethasone], the IC50 in test [1] (setting [4]) was determined as 2720 µM; in test [1] (setting [5]), 5000 µM; in test [1] (setting [6]), 1380 µM; in test [2] (setting [8]) it was 1310 µM; in test [2] (setting [9]), 2100 µM; in test [2] (setting [10]), 1310 ± 165 µM. Besides, the figures for the Emax in test [1] (setting [7]) and in test [2] (setting [11]) were 94.2 ± 7.33% and 74.5 ± 3.29%, respectively. Besides, the Relative potency stood at 1.35 in test [1] (from Hill-equation IC50), 1.40 in test [1] (from IC50 read from curve), 5.89 in test [2] (from Hill-equation IC50) and 5.23 in test [2] (from IC50 read from curve).

For the compound `C[C@@H]1C[C@H]2[C@@H]3CCC4=CC(=O)C=C[C@]4(C)[C@@]3(F)[C@@H](O)C[C@]2(C)[C@@]1(O)C(=O)CO` [Dexamethasone], the IC50 in test [1] (setting [4]) is 126 µM; in test [1] (setting [5]), 200 µM; in test [1] (setting [6]) it was 126 ± 44 µM; in test [2] (setting [8]), 444 µM; in test [2] (setting [9]), 410 µM; in test [2] (setting [10]), 444 ± 102 µM. Also, the Emax was 90.7 ± 5.72% in test [1] (setting [7]) and 99% in test [2] (setting [11]). For the same compound, the Relative potency in test [1] (from Hill-equation IC50) is 29.10; in test [1] (from IC50 read from curve) it was 35.0; in test [2] (from Hill-equation IC50), 17.42; in test [2] (from IC50 read from curve) it was 26.83.
